{"source": "paper PMC6193938", "about": "“Characterization of a novel AICARFT inhibitor which potently elevates ZMP and has anti-tumor activity in murine models” (Scientific Reports, 2018)", "key": {"[1]": {"target": "T1, CHK1 (Homo sapiens, UniProt O14757)", "T1 construct": "purchased CEREP Panlabs (Eurofins)", "T1 sequence (O14757 1-476)": "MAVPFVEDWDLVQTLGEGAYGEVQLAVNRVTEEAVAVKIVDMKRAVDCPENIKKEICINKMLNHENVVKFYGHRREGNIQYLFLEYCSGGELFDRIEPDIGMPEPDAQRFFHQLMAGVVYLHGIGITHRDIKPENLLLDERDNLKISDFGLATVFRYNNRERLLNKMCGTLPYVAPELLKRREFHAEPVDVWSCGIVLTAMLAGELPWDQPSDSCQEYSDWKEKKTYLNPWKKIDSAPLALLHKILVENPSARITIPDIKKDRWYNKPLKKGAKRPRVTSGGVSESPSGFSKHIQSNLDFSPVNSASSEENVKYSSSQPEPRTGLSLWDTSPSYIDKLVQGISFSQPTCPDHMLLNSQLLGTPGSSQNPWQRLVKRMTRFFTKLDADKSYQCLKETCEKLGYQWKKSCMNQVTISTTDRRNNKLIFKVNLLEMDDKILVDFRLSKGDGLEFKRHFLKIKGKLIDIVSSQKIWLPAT", "assay": "CEREP protein kinase assay", "assay_type": "biochemical"}, "[2]": {"target": "T2, FLT4 (Homo sapiens, UniProt P35916)", "T2 construct": "purchased CEREP Panlabs (Eurofins)", "assay": "CEREP protein kinase assay", "assay_type": "biochemical"}, "[3]": {"target": "T3, JAK1 (Homo sapiens, UniProt P23458)", "T3 construct": "purchased CEREP Panlabs (Eurofins)", "T3 sequence (P23458 whole entry)": "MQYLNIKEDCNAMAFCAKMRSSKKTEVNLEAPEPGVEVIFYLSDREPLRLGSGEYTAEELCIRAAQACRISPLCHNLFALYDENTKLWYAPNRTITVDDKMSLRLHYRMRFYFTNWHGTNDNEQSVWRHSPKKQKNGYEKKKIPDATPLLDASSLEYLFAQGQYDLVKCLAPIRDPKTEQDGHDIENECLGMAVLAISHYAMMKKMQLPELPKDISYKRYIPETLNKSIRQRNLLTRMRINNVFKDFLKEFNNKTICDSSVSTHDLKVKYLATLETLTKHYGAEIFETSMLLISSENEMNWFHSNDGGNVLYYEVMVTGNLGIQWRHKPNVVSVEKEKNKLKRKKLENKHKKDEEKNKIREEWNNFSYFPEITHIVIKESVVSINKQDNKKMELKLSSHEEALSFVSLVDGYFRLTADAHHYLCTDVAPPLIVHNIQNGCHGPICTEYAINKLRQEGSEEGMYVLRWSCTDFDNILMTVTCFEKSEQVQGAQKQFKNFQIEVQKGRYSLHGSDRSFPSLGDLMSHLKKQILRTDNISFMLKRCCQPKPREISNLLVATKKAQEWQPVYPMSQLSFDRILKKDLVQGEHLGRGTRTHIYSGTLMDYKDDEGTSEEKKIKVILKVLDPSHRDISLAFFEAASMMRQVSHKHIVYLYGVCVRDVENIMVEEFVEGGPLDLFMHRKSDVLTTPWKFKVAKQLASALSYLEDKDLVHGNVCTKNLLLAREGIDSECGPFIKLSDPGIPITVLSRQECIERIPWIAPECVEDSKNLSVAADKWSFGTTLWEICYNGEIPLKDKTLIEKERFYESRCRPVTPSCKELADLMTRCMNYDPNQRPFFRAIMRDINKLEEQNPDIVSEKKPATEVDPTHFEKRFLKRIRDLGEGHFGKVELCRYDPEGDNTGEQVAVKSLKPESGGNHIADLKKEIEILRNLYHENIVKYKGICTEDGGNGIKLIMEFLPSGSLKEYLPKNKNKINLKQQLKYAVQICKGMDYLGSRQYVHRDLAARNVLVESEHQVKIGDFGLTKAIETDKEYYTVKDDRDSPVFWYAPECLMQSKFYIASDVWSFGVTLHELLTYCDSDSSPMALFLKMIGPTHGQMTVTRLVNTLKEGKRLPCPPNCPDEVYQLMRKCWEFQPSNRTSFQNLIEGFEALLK", "assay": "CEREP protein kinase assay", "assay_type": "biochemical"}, "[4]": {"target": "T4, IRK (Homo sapiens, UniProt P06213)", "T4 construct": "purchased CEREP Panlabs (Eurofins)", "T4 sequence (P06213 28-1382)": "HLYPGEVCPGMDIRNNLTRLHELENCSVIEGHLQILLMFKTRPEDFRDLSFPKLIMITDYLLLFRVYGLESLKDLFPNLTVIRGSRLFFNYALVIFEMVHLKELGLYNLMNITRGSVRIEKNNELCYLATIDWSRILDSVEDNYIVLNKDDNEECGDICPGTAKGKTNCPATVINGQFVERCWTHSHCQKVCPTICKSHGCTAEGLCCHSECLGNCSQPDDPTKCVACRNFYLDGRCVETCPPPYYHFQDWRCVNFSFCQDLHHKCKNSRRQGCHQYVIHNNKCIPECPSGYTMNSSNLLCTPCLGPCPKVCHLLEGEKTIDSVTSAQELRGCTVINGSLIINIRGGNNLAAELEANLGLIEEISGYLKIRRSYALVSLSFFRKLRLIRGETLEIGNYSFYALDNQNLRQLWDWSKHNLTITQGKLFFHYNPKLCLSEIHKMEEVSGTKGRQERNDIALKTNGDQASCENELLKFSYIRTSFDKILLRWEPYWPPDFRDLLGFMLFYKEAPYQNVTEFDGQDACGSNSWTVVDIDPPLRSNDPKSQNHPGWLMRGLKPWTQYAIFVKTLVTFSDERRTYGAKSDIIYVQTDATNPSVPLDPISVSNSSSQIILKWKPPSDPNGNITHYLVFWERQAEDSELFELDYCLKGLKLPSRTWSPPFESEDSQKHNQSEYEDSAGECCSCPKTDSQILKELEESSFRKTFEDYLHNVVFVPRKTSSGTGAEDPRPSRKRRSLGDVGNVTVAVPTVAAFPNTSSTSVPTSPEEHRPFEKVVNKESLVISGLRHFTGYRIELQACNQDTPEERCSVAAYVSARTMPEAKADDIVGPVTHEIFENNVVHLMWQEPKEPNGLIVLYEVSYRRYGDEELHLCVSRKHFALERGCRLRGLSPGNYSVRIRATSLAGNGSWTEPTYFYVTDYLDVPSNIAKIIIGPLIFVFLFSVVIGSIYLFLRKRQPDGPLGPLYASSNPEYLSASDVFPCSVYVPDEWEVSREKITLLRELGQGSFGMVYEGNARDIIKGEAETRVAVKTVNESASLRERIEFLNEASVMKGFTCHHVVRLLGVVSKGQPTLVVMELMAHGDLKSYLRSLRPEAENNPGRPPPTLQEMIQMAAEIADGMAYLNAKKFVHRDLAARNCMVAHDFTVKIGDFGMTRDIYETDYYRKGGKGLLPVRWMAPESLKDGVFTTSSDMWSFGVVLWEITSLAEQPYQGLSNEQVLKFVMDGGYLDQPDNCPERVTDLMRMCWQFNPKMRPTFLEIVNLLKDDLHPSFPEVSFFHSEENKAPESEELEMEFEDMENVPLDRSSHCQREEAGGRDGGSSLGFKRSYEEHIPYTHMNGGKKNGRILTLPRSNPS", "assay": "CEREP protein kinase assay", "assay_type": "biochemical"}, "[5]": {"target": "T5, TYK2 (Homo sapiens, UniProt P29597)", "T5 construct": "purchased CEREP Panlabs (Eurofins)", "T5 sequence (P29597 whole entry)": "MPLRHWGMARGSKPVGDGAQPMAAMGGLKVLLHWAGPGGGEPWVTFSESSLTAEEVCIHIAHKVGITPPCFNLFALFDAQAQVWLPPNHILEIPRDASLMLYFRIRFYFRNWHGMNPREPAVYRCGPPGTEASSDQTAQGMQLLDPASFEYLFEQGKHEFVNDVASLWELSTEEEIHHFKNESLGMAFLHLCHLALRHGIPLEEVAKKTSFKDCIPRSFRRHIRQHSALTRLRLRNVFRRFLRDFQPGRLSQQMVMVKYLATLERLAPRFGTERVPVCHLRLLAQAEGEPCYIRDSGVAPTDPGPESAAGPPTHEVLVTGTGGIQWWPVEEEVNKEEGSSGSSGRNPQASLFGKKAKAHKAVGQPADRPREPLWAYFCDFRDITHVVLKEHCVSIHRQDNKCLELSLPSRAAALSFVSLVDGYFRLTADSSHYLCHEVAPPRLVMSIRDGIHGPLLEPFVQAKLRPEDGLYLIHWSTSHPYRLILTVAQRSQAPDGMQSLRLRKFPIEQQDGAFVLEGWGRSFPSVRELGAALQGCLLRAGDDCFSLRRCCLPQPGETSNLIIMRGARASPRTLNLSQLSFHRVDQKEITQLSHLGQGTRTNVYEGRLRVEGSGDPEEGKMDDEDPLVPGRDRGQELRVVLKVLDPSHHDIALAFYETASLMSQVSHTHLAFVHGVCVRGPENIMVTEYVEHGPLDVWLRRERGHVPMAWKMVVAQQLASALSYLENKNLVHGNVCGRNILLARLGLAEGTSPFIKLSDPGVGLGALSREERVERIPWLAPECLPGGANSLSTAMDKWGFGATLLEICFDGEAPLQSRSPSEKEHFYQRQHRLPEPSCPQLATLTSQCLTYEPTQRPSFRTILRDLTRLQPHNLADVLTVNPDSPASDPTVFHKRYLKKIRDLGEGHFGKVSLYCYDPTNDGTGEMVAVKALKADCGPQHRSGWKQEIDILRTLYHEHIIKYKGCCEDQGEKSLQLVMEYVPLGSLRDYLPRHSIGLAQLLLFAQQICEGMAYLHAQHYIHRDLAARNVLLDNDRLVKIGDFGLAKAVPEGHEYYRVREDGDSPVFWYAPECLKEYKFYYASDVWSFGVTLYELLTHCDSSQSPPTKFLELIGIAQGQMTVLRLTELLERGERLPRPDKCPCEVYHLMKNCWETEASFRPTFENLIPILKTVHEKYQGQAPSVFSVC", "assay": "CEREP protein kinase assay", "assay_type": "biochemical"}, "[6]": {"test_system": "NCI-H460 xenograft", "assay": "Antitumor efficacy and tumor metabolites, mouse xenograft, normal folate diet", "assay_type": "in vivo", "conditions": "NCI-H460 tumors; after 13 days of treatment; normal chow"}, "[7]": {"target": "T6, CDK7 (Homo sapiens, UniProt P50613)", "T6 construct": "purchased CEREP Panlabs (Eurofins)", "assay": "CEREP protein kinase assay", "assay_type": "biochemical"}, "[8]": {"target": "T7, MNK2 (Homo sapiens, UniProt Q9HBH9)", "T7 construct": "purchased CEREP Panlabs (Eurofins)", "T7 sequence (Q9HBH9 whole entry)": "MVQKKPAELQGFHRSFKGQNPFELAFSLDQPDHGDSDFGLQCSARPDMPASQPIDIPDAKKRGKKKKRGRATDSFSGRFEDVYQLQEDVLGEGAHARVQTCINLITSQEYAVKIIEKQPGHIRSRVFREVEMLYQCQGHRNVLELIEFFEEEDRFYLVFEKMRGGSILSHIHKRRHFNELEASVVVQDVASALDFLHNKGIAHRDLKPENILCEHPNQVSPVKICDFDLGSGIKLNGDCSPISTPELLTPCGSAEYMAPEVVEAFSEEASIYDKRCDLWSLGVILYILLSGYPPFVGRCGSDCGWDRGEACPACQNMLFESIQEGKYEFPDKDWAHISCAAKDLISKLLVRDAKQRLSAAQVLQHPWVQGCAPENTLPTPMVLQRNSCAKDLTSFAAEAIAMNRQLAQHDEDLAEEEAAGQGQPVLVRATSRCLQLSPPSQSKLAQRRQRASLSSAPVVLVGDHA", "assay": "CEREP protein kinase assay", "assay_type": "biochemical"}, "[9]": {"target": "T8, EPHB2 (Homo sapiens, UniProt P29323)", "T8 construct": "purchased CEREP Panlabs (Eurofins)", "T8 sequence (P29323 19-1055)": "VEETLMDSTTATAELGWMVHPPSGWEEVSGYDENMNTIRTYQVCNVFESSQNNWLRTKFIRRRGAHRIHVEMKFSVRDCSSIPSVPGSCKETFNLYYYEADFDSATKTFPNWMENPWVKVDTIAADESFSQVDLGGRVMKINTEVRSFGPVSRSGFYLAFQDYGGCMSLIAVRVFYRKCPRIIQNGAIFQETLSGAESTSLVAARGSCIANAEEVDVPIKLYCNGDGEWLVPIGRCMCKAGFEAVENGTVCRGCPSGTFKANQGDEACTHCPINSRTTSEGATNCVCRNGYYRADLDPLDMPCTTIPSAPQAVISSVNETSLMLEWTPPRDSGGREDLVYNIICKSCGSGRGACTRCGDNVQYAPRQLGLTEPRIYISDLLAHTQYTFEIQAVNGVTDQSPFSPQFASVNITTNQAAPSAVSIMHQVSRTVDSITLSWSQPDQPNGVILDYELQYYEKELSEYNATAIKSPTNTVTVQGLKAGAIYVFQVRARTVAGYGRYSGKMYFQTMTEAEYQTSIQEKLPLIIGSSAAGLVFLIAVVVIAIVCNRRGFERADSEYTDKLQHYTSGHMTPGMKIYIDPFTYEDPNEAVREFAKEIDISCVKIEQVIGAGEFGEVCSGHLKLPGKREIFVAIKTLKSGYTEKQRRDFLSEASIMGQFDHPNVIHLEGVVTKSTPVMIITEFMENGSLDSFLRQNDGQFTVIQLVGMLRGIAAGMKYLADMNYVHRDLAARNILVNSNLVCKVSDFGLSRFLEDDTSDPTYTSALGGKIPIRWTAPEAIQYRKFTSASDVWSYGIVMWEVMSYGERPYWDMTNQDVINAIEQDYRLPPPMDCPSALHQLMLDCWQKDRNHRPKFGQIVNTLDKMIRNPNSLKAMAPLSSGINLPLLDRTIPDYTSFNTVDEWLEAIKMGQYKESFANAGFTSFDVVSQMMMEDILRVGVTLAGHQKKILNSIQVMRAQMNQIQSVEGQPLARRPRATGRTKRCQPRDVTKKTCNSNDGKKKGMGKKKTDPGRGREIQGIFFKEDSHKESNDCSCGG", "assay": "CEREP protein kinase assay", "assay_type": "biochemical"}, "[10]": {"target": "T9, ERK2 (Homo sapiens, UniProt P28482)", "T9 construct": "purchased CEREP Panlabs (Eurofins)", "T9 sequence (P28482 whole entry)": "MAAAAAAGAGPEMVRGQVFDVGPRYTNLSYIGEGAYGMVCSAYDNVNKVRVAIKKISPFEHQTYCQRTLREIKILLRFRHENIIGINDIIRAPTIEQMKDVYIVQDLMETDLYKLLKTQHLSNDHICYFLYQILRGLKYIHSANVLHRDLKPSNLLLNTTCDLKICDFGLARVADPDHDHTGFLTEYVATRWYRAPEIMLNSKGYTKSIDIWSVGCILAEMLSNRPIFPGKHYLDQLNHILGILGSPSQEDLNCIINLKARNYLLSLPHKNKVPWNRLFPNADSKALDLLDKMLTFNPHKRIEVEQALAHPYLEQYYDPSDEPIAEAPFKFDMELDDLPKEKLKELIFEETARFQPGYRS", "assay": "CEREP protein kinase assay", "assay_type": "biochemical"}}, "data": [{"smiles": "O=c1[nH]ccc2cc(F)c(NS(=O)(=O)c3ccc(N4CC[C@@H](O)C4)s3)cc12", "note": "[LSN3213128, N-(6-Fluoro-1-oxo-1,2-dihydroisoquinolin-7-yl)-5-[(3R)-3-hydroxypyrrolidin-1-yl]thiophene-2-sulfonamide]", "values": [{"measurement": "inhibition at 0.2 µM", "setting": "[1]; @ 0.2 uM", "value": -8.96, "unit": "%"}, {"measurement": "inhibition at 2 µM", "setting": "[1]; @ 2 uM", "value": 14.5, "unit": "%"}, {"measurement": "inhibition at 20 µM", "setting": "[1]; @ 20 uM", "value": 5.24, "unit": "%"}, {"measurement": "inhibition at 0.2 µM", "setting": "[2]; @ 0.2 uM", "value": -9.28, "unit": "%"}, {"measurement": "inhibition at 2 µM", "setting": "[2]; @ 2 uM", "value": 6.53, "unit": "%"}, {"measurement": "inhibition at 20 µM", "setting": "[2]; @ 20 uM", "value": 70.5, "unit": "%"}, {"measurement": "inhibition at 0.2 µM", "setting": "[3]; @ 0.2 uM", "value": -1.48, "unit": "%"}, {"measurement": "inhibition at 2 µM", "setting": "[3]; @ 2 uM", "value": 5.53, "unit": "%"}, {"measurement": "inhibition at 20 µM", "setting": "[3]; @ 20 uM", "value": 46.6, "unit": "%"}, {"measurement": "inhibition at 0.2 µM", "setting": "[4]; @ 0.2 uM", "value": -0.8, "unit": "%"}, {"measurement": "inhibition at 2 µM", "setting": "[4]; @ 2 uM", "value": 10.6, "unit": "%"}, {"measurement": "inhibition at 20 µM", "setting": "[4]; @ 20 uM", "value": 12.9, "unit": "%"}, {"measurement": "inhibition at 0.2 µM", "setting": "[5]; @ 0.2 uM", "value": -6.85, "unit": "%"}, {"measurement": "inhibition at 2 µM", "setting": "[5]; @ 2 uM", "value": -1.32, "unit": "%"}, {"measurement": "inhibition at 20 µM", "setting": "[5]; @ 20 uM", "value": 35.1, "unit": "%"}, {"measurement": "tumor ZMP levels", "setting": "[6]", "value": "dramatically elevated"}, {"measurement": "tumor dUMP levels", "setting": "[6]", "value": "remained constant"}, {"measurement": "inhibition at 0.2 µM", "setting": "[7]; @ 0.2 uM", "value": -17, "unit": "%"}, {"measurement": "inhibition at 2 µM", "setting": "[7]; @ 2 uM", "value": 2.91, "unit": "%"}, {"measurement": "inhibition at 20 µM", "setting": "[7]; @ 20 uM", "value": 15, "unit": "%"}, {"measurement": "inhibition at 0.2 µM", "setting": "[8]; @ 0.2 uM", "value": -1.93, "unit": "%"}, {"measurement": "inhibition at 2 µM", "setting": "[8]; @ 2 uM", "value": 4.7, "unit": "%"}, {"measurement": "inhibition at 20 µM", "setting": "[8]; @ 20 uM", "value": 5.92, "unit": "%"}, {"measurement": "inhibition at 0.2 µM", "setting": "[9]; @ 0.2 uM", "value": -14.3, "unit": "%"}, {"measurement": "inhibition at 2 µM", "setting": "[9]; @ 2 uM", "value": 8.96, "unit": "%"}, {"measurement": "inhibition at 20 µM", "setting": "[9]; @ 20 uM", "value": 12, "unit": "%"}, {"measurement": "inhibition at 0.2 µM", "setting": "[10]; @ 0.2 uM", "value": -4.25, "unit": "%"}, {"measurement": "inhibition at 2 µM", "setting": "[10]; @ 2 uM", "value": 11.1, "unit": "%"}, {"measurement": "inhibition at 20 µM", "setting": "[10]; @ 20 uM", "value": 60.3, "unit": "%"}]}]}
